Source: US20240166652A1, “MODULATORS OF THE INTEGRATED STRESS PATHWAY” (Calico Life Sciences LLC, priority 2017, published 2024)

Tested on: ATF4 luciferase reporter in HEK293T cells
Experiment: ATF4-Luc assay (ATF4 luciferase reporter, tunicamycin-treated HEK293T cells)
Type: cell-based, human
Conditions: Homo sapiens, HEK-293T; HEK293T cells carrying the ATF4 luciferase reporter, 1 μg/mL tunicamycin, 7 hours

| SMILES | EC50 [nM] |
| --- | --- |
| O=C(COc1ccc(F)c(C(F)(F)F)c1)NC12CCC(NC(=O)COc3ccc(Cl)c(F)c3)(CC1)[C@@H](O)C2 [Compound 848, 2-(4-chloro-3-fluorophenoxy)-N-[(2S)-4-{2-[4-fluoro-3-(trifluoromethyl)phenoxy]acetamido}-2-hydroxybicyclo[2.2.2]octan-1-yl]acetamide] | < 10 |
| CN(CC(=O)NC12CC(NC(=O)COc3ccc(Cl)c(F)c3)(C1)C2)c1ccc(Cl)cc1 [Compound 201, N-{3-[2-(4-chloro-3-fluorophenoxy)acetamido]bicyclo[1.1.1]pentan-1-yl}-N^2-(4-chlorophenyl)-N^2-methylglycinamide] | 500 to 2000 |
| O=C(COc1ccc(Cl)c(Cl)c1)NC12CCCC(NC(=O)OCc3ccccc3)(C1)C2 [Compound 194, benzyl {5-[2-(3,4-dichlorophenoxy)acetamido]bicyclo[3.1.1]heptan-1-yl}carbamate] | > 2000 |
| O=C(COc1ccc(Cl)c(F)c1)NC12CCC(NC(=O)COc3ccc(C4CC4)nc3)(CC1)C(O)C2 (stereo not shown) [Compound 311, 2-(4-chloro-3-fluorophenoxy)-N-(4-{2-[(6-cyclopropylpyridin-3-yl)oxy]acetamido}-3-hydroxybicyclo[2.2.2]octan-1-yl)acetamide] | < 10 |
| O=C(COc1ccc(Cl)c(Cl)c1)NC12CC(NC(=O)COc3ccc(Cl)c(Cl)c3)(C1)C2 [Compound 106, N,N′-(bicyclo[1.1.1]pentane-1,3-diyl)bis[2-(3,4-dichlorophenoxy)acetamide]] | < 10 |
| O=C(COc1ccc(F)c(F)c1)NC12CCC(NC(=O)COc3ccc(F)c(OC(F)F)c3)(CC1)[C@@H](O)C2 [Compound 796, 2-[3-(difluoromethoxy)-4-fluorophenoxy]-N-{(2S)-4-[2-(3,4-difluorophenoxy)acetamido]-2-hydroxybicyclo[2.2.2]octan-1-yl}acetamid6] | 10 to 50 |
| CCCC1CC2(NC(=O)COc3ccc(Cl)c(F)c3)CCC1(NC(=O)COc1ccc(Cl)c(F)c1)CC2 (stereo not shown) [Compound 723, N,N′-(2-propylbicyclo[2.2.2]octane-1,4-diyl)bis[2-(4-chloro-3-fluorophenoxy)acetamide]] | 10 to 50 |
| Cc1ccc(OCC(=O)NC23CC(NC(=O)COc4ccc(Cl)c(F)c4)(C2)C3)c(N)n1 [Compound 229, 2-[(2-amino-6-methylpyridin-3-yl)oxy]-N-{3-[2-(4-chloro-3-fluorophenoxy)acetamido]bicyclo[1.1.1]pentan-1-yl}acetamide] | 500 to 2000 |
| Cc1cc2nc(CNC34CCC(NC(=O)COc5ccc(C(F)(F)F)c(F)c5)(CC3)[C@@H](O)C4)[nH]c2cc1C [Compound 673, N-[(2S)-4-{[(5,6-dimethyl-1H-benzimidazol-2-yl)methyl]amino}-2-hydroxybicyclo[2.2.2]octan-1-yl]-2-[3-fluoro-4-(trifluoromethyl)phenoxy]acetamide] | 50 to 250 |
| COc1ncc(OCC(=O)NC23CCC(NC(=O)COc4ccc(C(F)(F)F)c(F)c4)(CC2)[C@@H](O)C3)cn1 [Compound 633, 2-[3-fluoro-4-(trifluoromethyl)phenoxy]-N-[(2S)-2-hydroxy-4-{2-[(2-methoxypyrimidin-5-yl)oxy]acetamido}bicyclo[2.2.2]octan-1-yl]acetamide] | 10 to 50 |
| O=C(COc1ccc(F)cc1)NC12CC(NC(=O)COc3ccc(Cl)c(Cl)c3)(C1)C2 [Compound 532, 2-(3,4-dichlorophenoxy)-N-{3-[2-(4-fluorophenoxy)acetamido]bicyclo[1.1.1]pentan-1-yl}acetamide] | < 10 |
| COc1cc(OCC(=O)NC23CCC(NC(=O)COc4ccc(Cl)c(F)c4)(CC2)C[C@@H]3O)nc(SC)n1 [Compound 497, 2-(4-chloro-3-fluorophenoxy)-N-[(3S)-3-hydroxy-4-(2-{[6-methoxy-2-(methylsulfanyl)pyrimidin-4-yl]oxy}acetamido)bicyclo[2.2.2]octan-1-yl]acetamide] | 500 to 2000 |
| O=C(COc1ccc(Cl)c(F)c1)NC12CCC(NC(=O)OCc3ccccc3)(C1)C2 [Compound 180, benzyl {4-[2-(4-chloro-3-fluorophenoxy)acetamido]bicyclo[2.1.1]hexan-1-yl}carbamate] | 50 to 250 |
